Experimental data from ChEMBL document CHEMBL5325414, “Novel neuroprotective pyromeconic acid derivatives with concurrent anti-Aβ deposition, anti-inflammatory, and anti-oxidation properties for treatment of Alzheimer's disease” (Eur J Med Chem, 2023).
Active and inactive are the calls of the source. The calls are words filed in the database; no cut-off is given here.

What was measured:
[1] = Antioxidant activity by measuring oxygen radical absorbance capacity-fluorescein values; format: functional
[2] = molecular target: T1, Amyloid-beta precursor protein (Homo sapiens, UniProt P05067); experiment: Inhibition of amyloid beta (1 to 42) (unknown origin) self aggregation at 50 uM relative to control
[3] = molecular target: T1, Amyloid-beta precursor protein; experiment: Inhibition of amyloid beta (1 to 42) (unknown origin) self aggregation
[4] = molecular target: T1, Amyloid-beta precursor protein; experiment: Inhibition of amyloid beta (1 to 42) (unknown origin) self aggregation assessed as disaggregation
[5] = molecular target: T1, Amyloid-beta precursor protein; experiment: Inhibition of amyloid beta (1 to 42) (unknown origin) self aggregation assessed as low density in amyloid fibrils compound addition at 50 uM after fibrilation for 24 hrs
[6] = molecular target: Amyloid-beta precursor protein (Mus musculus) (UniProt P12023); experiment: Inhibition of amyloid beta (1 to 42) in mouse BV-2 cells by measuring scavenging effect at 2.5 to 10 uM by ThT fluorescence based immunoblot analysis; format: cell-based; conditions: dose 2.5-10 µM
BV-2 [7] = experiment: Neuroprotective activity against amyloid beta (1 to 42) induced neurotoxicity in mouse BV-2 cells assessed as survival of cells at 10 uM treated for 24 hrs relative to control; format: functional
BV-2 [8] = experiment: Effect of amyloid beta (1 to 42) indued apoptosis in mouse BV-2 cells assessed as late apoptotic cells at 2.5 uM measured by propidium iodide staining based flow cytometric analysis (reference value: 6.88%); format: functional
BV-2 [9] = experiment: Effect of amyloid beta (1 to 42) indued apoptosis in mouse BV-2 cells assessed as necrotic cells at 2.5 uM measured by propidium iodide staining based flow cytometric analysis (reference value: 5.72%); format: functional
BV-2 [10] = experiment: Effect of amyloid beta (1 to 42) indued apoptosis in mouse BV-2 cells assessed as viable cells at 5 uM measured by propidium iodide staining based flow cytometric analysis (reference value: 61.29%); format: functional; conditions: read-out: Activity
BV-2 [11] = experiment: Effect of amyloid beta (1 to 42) indued apoptosis in mouse BV-2 cells assessed as viable cells at 10 uM measured by propidium iodide staining based flow cytometric analysis (reference value: 61.29%); format: functional; conditions: read-out: Activity
BV-2 [12] = experiment: Effect of amyloid beta (1 to 42) indued apoptosis in mouse BV-2 cells assessed as early apoptotic cells at 10 uM measured by propidium iodide staining based flow cytometric analysis (reference value: 26.12%); format: functional
BV-2 [13] = experiment: Effect of amyloid beta (1 to 42) indued apoptosis in mouse BV-2 cells assessed as late apoptotic cells at 10 uM measured by propidium iodide staining based flow cytometric analysis (reference value: 6.88%); format: functional
BV-2 [14] = experiment: Effect of amyloid beta (1 to 42) indued apoptosis in mouse BV-2 cells assessed as necrotic cells at 10 uM measured by propidium iodide staining based flow cytometric analysis (reference value: 5.72%); format: functional
BV-2 [15] = experiment: Effect on H2O2 induced reactive oxygen species in mouse BV-2 cells assessed as reduction of ROS generation at 5 uM by fluorescence microscopic analysis relative to control; format: functional; design: scale not given: the % may be the effect or the level left
BV-2 [16] = experiment: Effect on H2O2 induced reactive oxygen species in mouse BV-2 cells assessed as reduction of ROS generation at 20 uM by fluorescence microscopic analysis relative to control; format: functional; design: scale not given: the % may be the effect or the level left
[17] = Half life in Sprague-Dawley rat at 15 mg/kg, IG; format: ADME, organism-based; conditions: in vivo, po
[18] = Tmax in Sprague-Dawley rat at 15 mg/kg, IG; format: ADME, organism-based; conditions: in vivo, po
[19] = MRT(0 to t) in Sprague-Dawley rat at 15 mg/kg, IG; format: ADME, organism-based; conditions: in vivo, po
[20] = Clearance in Sprague-Dawley rat at 15 mg/kg, IG; format: ADME, organism-based; conditions: in vivo, po
[21] = Drug concentration in plasma of Sprague-Dawley rat at 15 mg/kg, IG measured after 0.167 hrs; format: ADME, organism-based; conditions: po
[22] = Drug concentration in plasma of Sprague-Dawley rat at 15 mg/kg, IG measured after 0.25 hrs; format: ADME, organism-based; conditions: po
[23] = Drug concentration in plasma of Sprague-Dawley rat at 15 mg/kg, IG measured after 1 hrs; format: ADME, organism-based; conditions: po
[24] = Drug concentration in plasma of Sprague-Dawley rat at 15 mg/kg, IG measured after 4 hrs; format: ADME, organism-based; conditions: po
[25] = Drug concentration in hippocampus of Sprague-Dawley rat at 15 mg/kg, IG measured after 2 hrs; format: ADME, organism-based; conditions: po, read-out: Drug uptake
[26] = Ratio of drug concentration in hippocampus to plasma of Sprague-Dawley rat at 15 mg/kg, IG measured after 0.25 hrs; format: ADME, organism-based; conditions: po
[27] = Ratio of drug concentration in hippocampus to plasma of Sprague-Dawley rat at 15 mg/kg, IG measured after 0.5 hrs; format: ADME, organism-based; conditions: po
[28] = Ratio of drug concentration in hippocampus to plasma of Sprague-Dawley rat at 15 mg/kg, IG measured after 4 hrs; format: ADME, organism-based; conditions: po
[29] = Acute toxicity in mouse assessed as change in dietary activity at 2000 mg/kg, IG administered as single dose measured after 14 days; format: organism-based; conditions: in vivo, po, 336 h, time 14 day
[30] = Acute toxicity in mouse assessed as histopathological change in heart at 2000 mg/kg, IG administered as single dose measured after 14 days measured by H and E staining analysis; format: organism-based; conditions: in vivo, po, 336 h, time 14 day
[31] = Acute toxicity in mouse assessed as histopathological change in brain at 2000 mg/kg, IG administered as single dose measured after 14 days measured by H and E staining analysis; format: organism-based; conditions: in vivo, po, 336 h, time 14 day
[32] = Acute toxicity in mouse assessed as lethal dose administered as single IG dose measured after 14 days measured by H and E staining analysis; conditions: in vivo, po, time 14 day
Mus musculus [33] = experiment: Cognitive enhancement in scopolamine induced ICR alzheimer's disease mouse assessed as gain in body weight pretreated with scopolamine at 3 mg/kg, ip for 31 days followed by compound addition at 20 mg/kg, po at day 7 to 31; format: functional, organism-based; conditions: time 25.0 day
Mus musculus [34] = experiment: Anti alzheimer activity in scopolamine induced anxiety in ICR mouse assessed as increase in crossing time by measuring escape latency pretreated with scopolamine at 3 mg/kg, ip for 31 days followed by compound addition at 20 mg/kg, po at day 7 to 31 by morris water maze test; format: functional, organism-based; conditions: time 25.0 day
Mus musculus [35] = experiment: Anti alzheimer activity in scopolamine induced anxiety in ICR mouse assessed as decrease in chaotic behaviour pretreated with scopolamine at 3 mg/kg, ip for 31 days followed by compound addition at 20 mg/kg, po at day 7 to 31 by morris water maze test; format: functional, organism-based; conditions: time 25.0 day
Mus musculus [36] = experiment: Anti alzheimer activity in scopolamine induced anxiety in ICR mouse assessed as improved memory function pretreated with scopolamine at 3 mg/kg, ip for 31 days followed by compound addition at 20 mg/kg, po at day 7 to 31 by morris water maze test; format: functional, organism-based; conditions: time 25.0 day
Mus musculus [37] = experiment: Neuroprotective effect in scopolamine induced cognitively impaired mouse assessed as […] of amyloid beta plaque deposition at 20 mg/kg by ELISA analysis; format: functional, organism-based
Mus musculus [38] = experiment: Antioxidant activity in scopolamine induced cognitive impaired mouse assessed as increase of GSH level in cortex at 20 mg/kg; format: functional, organism-based
Mus musculus [39] = experiment: In vivo effect on HO-1 expression in scopolamine induced cognitive impaired mouse assessed as reversal of NRF2 signalling in hippocampus treated at 20 mg/kg by immunofluorescence analysis; format: functional, organism-based
Mus musculus [40] = experiment: In vivo antiinflammatory activity in scopolamine induced cognitive impaired ICR mouse assessed as decrease in IL-6 levels in cortex; format: functional, organism-based

T1 sequence (P05067 whole entry): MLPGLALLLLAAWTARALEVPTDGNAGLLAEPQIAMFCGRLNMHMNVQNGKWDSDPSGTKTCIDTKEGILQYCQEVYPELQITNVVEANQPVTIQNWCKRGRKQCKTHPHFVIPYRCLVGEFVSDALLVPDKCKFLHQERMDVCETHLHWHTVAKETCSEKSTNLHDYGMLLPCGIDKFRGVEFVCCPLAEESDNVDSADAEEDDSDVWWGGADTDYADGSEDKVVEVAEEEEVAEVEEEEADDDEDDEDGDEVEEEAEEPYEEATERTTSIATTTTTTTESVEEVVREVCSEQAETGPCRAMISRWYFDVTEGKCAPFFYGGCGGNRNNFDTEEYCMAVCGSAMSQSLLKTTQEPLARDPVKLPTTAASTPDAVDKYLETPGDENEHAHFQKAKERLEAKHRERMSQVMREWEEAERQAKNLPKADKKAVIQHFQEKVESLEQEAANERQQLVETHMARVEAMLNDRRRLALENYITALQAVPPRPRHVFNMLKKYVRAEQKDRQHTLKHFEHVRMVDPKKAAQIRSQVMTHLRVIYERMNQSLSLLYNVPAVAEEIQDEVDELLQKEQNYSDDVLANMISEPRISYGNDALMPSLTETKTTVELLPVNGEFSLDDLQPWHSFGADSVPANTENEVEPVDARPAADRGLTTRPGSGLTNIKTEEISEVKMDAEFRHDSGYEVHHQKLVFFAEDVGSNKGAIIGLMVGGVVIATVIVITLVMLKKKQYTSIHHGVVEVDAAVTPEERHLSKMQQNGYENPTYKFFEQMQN
Sequence of Amyloid-beta precursor protein (Mus musculus) (P12023 whole entry): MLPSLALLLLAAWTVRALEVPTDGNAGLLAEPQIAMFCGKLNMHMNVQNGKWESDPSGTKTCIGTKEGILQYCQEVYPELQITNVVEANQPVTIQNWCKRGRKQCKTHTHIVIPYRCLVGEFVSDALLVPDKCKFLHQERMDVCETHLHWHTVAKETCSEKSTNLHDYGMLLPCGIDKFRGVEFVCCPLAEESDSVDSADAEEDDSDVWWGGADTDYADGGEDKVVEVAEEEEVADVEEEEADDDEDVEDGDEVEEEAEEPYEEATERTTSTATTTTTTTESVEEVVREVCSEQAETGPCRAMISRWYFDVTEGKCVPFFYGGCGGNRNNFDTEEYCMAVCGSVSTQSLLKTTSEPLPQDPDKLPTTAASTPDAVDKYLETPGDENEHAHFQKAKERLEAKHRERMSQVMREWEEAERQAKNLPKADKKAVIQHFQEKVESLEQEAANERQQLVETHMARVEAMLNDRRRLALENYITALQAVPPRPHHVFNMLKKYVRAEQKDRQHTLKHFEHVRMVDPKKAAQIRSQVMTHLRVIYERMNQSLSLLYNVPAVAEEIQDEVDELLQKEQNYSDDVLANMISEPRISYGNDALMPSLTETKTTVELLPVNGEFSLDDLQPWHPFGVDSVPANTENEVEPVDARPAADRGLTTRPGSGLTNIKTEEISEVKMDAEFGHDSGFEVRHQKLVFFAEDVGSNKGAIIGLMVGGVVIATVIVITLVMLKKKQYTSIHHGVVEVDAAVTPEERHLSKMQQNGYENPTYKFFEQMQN

O=c1ccoc(/C=C/c2ccc(O)c(O)c2)c1O
Activity index [1]: 2.65
inhibition [2]: 80.3%
IC50 [3]: 11.1 µM
IC50 [4]: 6.87 µM
Activity [5]: Active
inhibition [6]: Active
Activity (BV-2 [7]): 75.5%
Activity (BV-2 [8]): 10.2%
Activity (BV-2 [9]): 0.16%
viability at 5 µM (BV-2 [10]): 77.4%
viability at 10 µM (BV-2 [11]): 63.1%
Activity (BV-2 [12]): 22.1%
Activity (BV-2 [13]): 6.82%
Activity (BV-2 [14]): 7.98%
Activity (BV-2 [15]): 19.45%
Activity (BV-2 [16]): 45.48%
half-life [17]: 14 h
Tmax [18]: 0.17 h
MRT last [19]: 6.36 h
CL/F [20]: 481 L/h/kg
concentration at 0.167 h [21]: 22.2 ng/mL
concentration at 0.25 h [22]: 5.32 ng/mL
concentration at 1 h [23]: 1.77 ng/mL
concentration at 4 h [24]: 0.95 ng/mL
concentration at 2 h [25]: 6.37 ng/mL
Kp at 0.25 h [26]: 0.5
Kp at 0.5 h [27]: 2.27
Kp at 4 h [28]: 5.62
Activity [29]: Non-Toxic
Activity [30]: Non-Toxic
Activity [31]: Non-Toxic
LD50 at 336 h [32]: ≥ 2000 mg/kg
Activity (Mus musculus [33]): Active
Activity (Mus musculus [34]): Active
Activity (Mus musculus [35]): Active
Activity (Mus musculus [36]): Active
Activity (Mus musculus [37]): Active
Activity (Mus musculus [38]): Active
Activity (Mus musculus [39]): Active
Activity (Mus musculus [40]): Active
